Reference: publication PMC4569013, “Massive Bioaccumulation and Self‐Assembly of Phenazine Compounds in Live Cells” (Advanced Science, 2015)

What was measured:
Assay type in all cases: cell-based
[1] = tested on: RAW264.7 macrophages; assay: Cell associated mass measurements (bioaccumulation, pmole/cell); details: 72 h incubation, normalized by number of cells
Experimental: Cell Associated Mass Measurements: […] After an overnight incubation (37 °C, 5% CO2), cells were incubated with 100 μL of the media (DMEM with 5% FBS) containing 5 × 10^−6 M clofazmine or its chemical derivatives (2.5 × 10^−6 M of Compound “I”). Media containing each compound was replaced every day during the 72 h incubation. After the incubation, media was removed and cells were washed with Hank's balanced salt solution (HBSS) buffer (No. 14025; Invitrogen) twice. RAW264.7 macrophage cells in buffer were scraped and MDCK epithelial cells were exposed to Trypsin‐EDTA solution for detachment from the plates for cell number counting and quantification of cell‐associated masses. After centrifugation (650 × g), supernatant was removed and cell pellets were resuspended in 0.1 M citric acid/0.1 M trisodium citrate buffer (pH 5) for cell counting as previously reported.7 Equal numbers of cells in 100 μL in buffer were transferred to 96 well plates and 100 μL of detergent (ATCC, 30‐1010K) was added into wells for cell lysis. Chemical absorbance from each well was measured by the UV–vis microplate reader (Synergy 2, BioTek Instruments, Winooski, VT) at 490 nm wavelength and cell‐associated mass of each compound was calculated by a standard curve generated separately using the same media and presented as pmole/cell by normalizing the amount of chemical in each cell population sample by the number of cells in each sample.

[2] = tested on: RAW264.7 macrophages; assay: Cell accumulation experiment, transmitted light microscopy of cellular staining pattern; details: for Inferred uptake: inferred from staining pattern after 72 hour incubation; for Observed cellular staining pattern (Notes): live cells, 72 hour incubation, 5 × 10^−6 M (2.5 × 10^−6 M for I); for Cellular staining relative to clofazimine: live macrophages, 72 h; for Staining in fixed cells: methanol-fixed cells incubated 72 h with compound (control)
Experimental: Cell Accumulation Experiments and Transmitted Light Microscopic Examination: […] After a 24 h incubation (37 °C, 5% CO2), cells were incubated with solution of clofazmine or its chemical derivatives (300 μL of 5 × 10^−6 m concentration; measured cell viability ranging from 85% to 97% for all compounds tested at this concentration; Figure 1) in DMEM (no phenol red; plus 1 × 10^−3 M sodium pyruvate and 5% FBS). For Compound “I,” 2.5 × 10^−6 M of compound solution in media was used for the RAW 264.7 macrophages incubation because of lower cell viability at higher concentrations (IC50 = (3.95 ± 0.11) × 10^−6 M). A solution of clofazmine or other chemical derivatives was made by a diluting stock solutions (2.5 × 10^−3 M in DMSO; 10 × 10^−3 M stock in DMSO were stored at −80 °C for further use) into DMEM with 5% FBS. […] The extracellular concentration of each compound in each well was maintained by daily replacement of the compound‐containing media. After 72 h of incubation with clofazmine or its derivatives, compound‐containing media were removed and cells were washed twice with media. Live cells in the chambered glasses were examined under inverted transmitted light microscopy (Nikon Eclipse Ti microscope) with a 40× objective and color camera. As a control experiment, fixed cells were also microscopically examined after incubation with the compounds. Cells were seeded on the chambered cover glasses at the density of 1.5 × 10^4 cells cm^−2 (RAW264.7 macrophages) or 2.5 × 10^4 cells cm^−2 (MDCK epithelial cells). After an overnight incubation (37 °C, 5% CO2), media was removed from the wells and cold methanol (−20 °C) was added to each well. After 30 s, remaining methanol was removed by washing with media with 5% FBS. Fixed cells were incubated (37 °C, 5% CO2) with clofazmine or derivatives (300 μL of 5 × 10^−6 M; 2.5 × 10^−6 M for I) in media with 5% FBS. After 72 h, fixed RAW264.7 or MDCK cells were washed with media and examined using the same transmitted microscopy conditions as the live cells.

[3] = tested on: RAW264.7 macrophages; assay: Confocal fluorescence microscopy, intracellular localization of inclusions; details: 5 × 10^−6 M, 72 h, live cells
Experimental: Confocal Fluorescent Microscopy: A Nikon A1 confocal microscope was used for further investigation of live cells incubated with chiral pairs of compounds (T and U) and the parent compound, P. Since crystals or vesicular forms containing chemicals inside the cells incubated with Compound P, T, or U were fluorescent when viewed with the TRITC filter sets, intracellular distribution of these compounds in RAW264.7 or MDCK cells were visualized using a Nikon A1 confocal microscopy (Nikon Instruments Inc., Melville, NY) equipped with diode‐based lasers and a Nikon Apo 60×/1.4 NA oil immersion lens. Briefly, RAW264.7 macrophages or MDCK epithelial cells were seeded in the 8‐well Nunc Lab‐Tek II chambered (#1.5) cover glasses (Thermo Scientific, Pittsburgh, PA) at a density of 8 × 10^3 cells cm^−2 (RAW264.7 cells) or 1.5 × 10^4 cells cm^−2 (MDCK cells) and allowed to adhere overnight (37 °C, 5% CO2). Then, 5 × 10^−6 M of Compound “P” or the related isomers, “T” or “U” in DMEM with 5% FBS (300 μL) was added to the cells and the cells were incubated for 72 h (37 °C, 5% CO2). For live cell imaging, after the removal of media, cells were washed with HBSS buffer twice. Hoechst 33342 (Invitrogen, Carlsbad, CA) was used for staining cell nuclei and FM 1‐43 (Molecular Probes T35356, Invitrogen) for the plasma membrane. Cells were incubated with 300 μL of 1:1 (v/v) dye mixtures of 5 μg mL^−1 Hoechst 33342 and 7 × 10^−6 M FM 1‐43 in HBSS for 15 min at room temperature. Without fixative, the confocal imaging of the live cells was performed using lasers for DAPI (excitation/emission wavelength: 405 nm/450 ± 25 nm), FITC (488 nm/525 ± 25 nm), and TRITC (561 nm/596 ± 25 nm) channels. Z‐stack images of the cells were captured along the Z‐axis (interval, 1 μm) in three fluorescence channels and analyzed by using the Nikon NIS‐Elements 3.2 confocal software (Nikon Instruments Inc., Melville, NY). […]

| Accumulation in macrophages [1] | Inferred uptake [2] | Compound | Observed cellular staining pattern (Notes) [2] | Cellular staining relative to clofazimine [2] | Staining in fixed cells [2] | Intracellular localization of compound (fluorescence, TRITC channel) [3] |
| --- | --- | --- | --- | --- | --- | --- |
| greatest accumulation | Good | C[C@@H](CN=c1cc2n(-c3ccc(Cl)cc3)c3ccccc3nc-2cc1Nc1ccc(Cl)cc1)c1ccccc1 [Compound U] | Fibrous/crystal-like brown inclusions with orange perinuclear vesicles are present in live cells | prominent cellular staining | absent in fixed cells | localized at the periphery of the cell nuclei |
| greatest accumulation | Excellent | Clc1ccc(Nc2cc3nc4ccccc4n(-c4ccc(Cl)cc4)c-3cc2=NCCc2ccccc2)cc1 [Compound P] | Large fibrous/crystal-like brown inclusions present in live cells | more prominent staining patterns | absent in fixed cells | localized at the periphery of the cell nuclei |
